Patent US12599611B2, “Methods and compositions for treating seizure disorders in pediatric patients” (Neurelis, Inc., priority 2021, dated 2026)

Tested on: beta frequency by EEG
Assay: EEG monitoring of beta rhythm / beta frequency after diazepam administration
Conditions: after intranasal administration of 20 mg of diazepam via an intranasal composition

For `CN1C(=O)CN=C(c2ccccc2)c2cc(Cl)ccc21` [diazepam, 7-chloro-1,3-dihydro-1-methyl-5-phenyl-1,4-benzodiazepin-2-one], the “time to changes in beta frequency (EEG)” value was ≤ 10 min.
